From patent US20040138826A1, “Experimental design and data analytical methods for detecting and characterizing interactions and interaction thresholds on fixed ratio rays of polychemical mixtures and subsets thereof” (priority 2002, published 2004)
Like-named read-outs stand apart in the source and are kept apart here.

Columns and labels:
[1] = test system: female CD-1 mice; experiment: Liver damage by serum sorbitol dehydrogenase (SDH) after 14 days oral gavage of trihalomethane DBPs; settings: for Estimate of slope parameter γi, additivity model for SDH response: generalized linear model with power link, λ = 0.5, single chemical data only, female CD-1 mice, 14 days oral gavage; for Mean SDH (STD): positive control
Protocol: The mixture selected for the study used to illustrate the methodology proposed here is that of four trihalomethanes formed as disinfection by-products (DBPs) when water is chlorinated. […] The endpoint of interest is liver damage, as measured by serum sorbitol dehydrogenase (SDH) levels in female CD-1 mice after 14 days of exposure by oral gavage. Seven separate experiments were conducted: four single chemical studies and three mixture studies. A more complete description of the experimental methods is provided in Gennings, et al. (1997; 2000). […] The fixed mixing ratio of interest is associated with the chlorination process of disinfection (McDonald et al., 1999). The purpose of this study was to determine if the four DBPs combine additively, i.e., with no interaction.
The data used to illustrate the methodology developed in the following sections involves the combination of four chemicals, which are disinfection by-products in drinking water. Summary statistics for the single chemical data are provided in Gennings et al. (1997, 2000). A generalized linear model with a power link function, [formula]
After the single chemical studies were completed, three mixture studies were conducted. […] In order to verify that the dose-response relationship was consistent across the different studies, the additivity model given in (1) was used to predict the response for each of the positive control groups. […] The p-value is associated with the Wald-type test for equivalence of the two means.
The objective of this paper is to develop a method for testing for departure from additivity when the single chemical data cannot be used to describe the no interaction case. The mixture data of interest are assumed to result from a fixed-ratio ray design.

[2] = test system: normal human epidermal keratinocytes (NHEK); settings: for LD50 (estimated): Example 6; for LD50 (50% cell killing in individual cytotoxicity assays): predetermined, Example 5; for Sample Mean (% viability): single metal, 24 hr
Protocol: Cells and culture conditions. Cryopreserved, pooled normal human epidermal keratinocytes (NHEK) were purchased from the Clonetics Corp. (San Diego, Calif.). NHEK cells were grown in defined Keratinocyte Growth Medium-KGM™ (Clonetics).
Cytotoxicity analyses. For toxicity studies, cells were plated at a density of 2,500 cells/cm^2 in 6-well plastic tissue culture plates and grown for 24 hr before metal treatment. Triplicate wells of cells were treated with increasing concentrations of As, Cr, Cd, Pb, or a mixture of the four metals for 24 hr. Concentrations used for As and Cr were 0.3, 1, 3, 10 , and 100 mM. The Cr stock was made by mixing a 1:1 ratio of trivalent and hexavalent chromium. Cd and Pb were administered at 3, 10, 30, 100, and 300 mM. […] The concentrations of these three metals in the 1× mixture solution was 7.7 mM As, 4.9 mM Cr, 6.1 mM Cd. […] This 1× solution was serially diluted at a 1:3 ratio to get 0.333, 0.111, 0.037, 0.0123, 0.004, and 0.0014 dilution groups. Double deionized water was used as the vehicle control in all cases. After exposure to the individual metals or metal mixture, cells were refed with fresh metal-free KGM medium and incubated for 3 days prior to viability analysis by the MTT assay.
MTT assay. The MTT assay was carried out using a modification of the method of Mosmann (1983). MTT was dissolved at 5 mg/ml in 1× PBS [phosphate-buffered saline]. This stock solution was filtered through a […] and stored at 4° C. Immediately before use, the stock solution was diluted to 0.5 mg/ml with serum-free KGM to make a working solution. Working solution (1 ml) was added to each well of cells after aspiration of medium. Cells were incubated at 37° C. for 3 hr, after which time, the MTT was removed by aspiration. Cells were subsequently lysed by addition of 0.5 ml of dimethyl sulfoxide (DMSO). The absorbence at 550 nm of samples as well as a DMSO blank was read on a Microplate Autoreader (Bio-Tek Instruments, Inc, Winooski, Vt.). The absorbance of the DMSO blank was subtracted from all values. All absorbance values were standardized to the water vehicle control.
The methodology introduced in this paper is illustrated with cytotoxicity data obtained from assessing interactions among arsenic (As), cadmium (Cd), chromium (Cr), and lead (Pb) in human keratinocytes. The experimental data were obtained from Ray Yang and colleagues at Colorado State University. The endpoint of interest is the percent viability of treated NHEK cells using the MTT assay. […] This 1× solution was serially diluted at a 1:3 ratio to get 0.333, 0.111, 0.037, 0.0123, 0.004, and 0.0014 dilution groups. Double deionized water was used as the vehicle control in all cases.
After exposure to individual metals or metal exposure, cells were refed with fresh metal-free KGM medium and incubated for 3 days prior to viability analysis by the MTT assay. Details of the experimental protocol and methods are described elsewhere (24, 1) and are not included here.

[3] = 1.52 mM/kg, mixture study = 0.05 total dose
[4] = 1.52 mM/kg, mixture study = 1.5 total dose
[5] = 1.52 mM/kg, mixture study = 3.0 total dose

SMILES	Estimate of slope parameter γi, additivity model for SDH response [1]	Mean SDH (STD) [1, 3]	Mean SDH (STD) [1, 4]	Mean SDH (STD) [1, 5]	LD50 (estimated) [2]	Sample Mean (% viability) ([2]; dose 3 (mM))	Sample Mean (% viability) ([2]; dose 10 (mM))	Sample Mean (% viability) ([2]; dose 30 (mM))	also measured
ClC(Cl)Br [BDCM, bromodichloromethane]	3.567	107.3 (97.5)	56.0 (17.4)	48.8 (23.3)					
BrC(Br)Br [CHBr3, bromoform]	2.441	64.0 (27.8)	56.0 (24.8)	86.4 (89.2)					
[Cr] [Chromium]					4.9 µM	79.8 % viability	23.9 % viability	6.6 % viability	LD50 (50% cell killing in individual cytotoxicity assays) [2]: 4.9 mM; Sample Mean (% viability) ([2]; dose 0.3 (mM)): 105.1 % viability; Sample Mean (% viability) ([2]; dose 1.0 (mM)): 99.7 % viability
[Cl][Cd][Cl] [Cadmium, cadmium chloride]					6.1 µM	92.6 % viability	51.9 % viability	20.2 % viability	LD50 (50% cell killing in individual cytotoxicity assays) [2]: 6.1 mM; Sample Mean (% viability) ([2]; dose 100 (mM)): 3.8 % viability; Sample Mean (% viability) ([2]; dose 300 (mM)): 4.6 % viability
ClC(Br)Br [CDBM, chlorodibromomethane]	3.833								Mean SDH (STD) ([1]; 0.76 mM/kg, mixture study = 0.05 total dose): 38.0 (11.2); Mean SDH (STD) ([1]; 0.76 mM/kg, mixture study = 1.5 total dose): 28.1 (6.7); Mean SDH (STD) ([1]; 0.76 mM/kg, mixture study = 3.0 total dose): 19.3 (3.6)
CC(=O)[O-].CC(=O)[O-].[Pb+2] [Lead, lead acetate]					100 µM	95.5 % viability	91.0 % viability	98.8 % viability	cell killing ([2]; individual cytotoxicity assay): unable to get complete killing at any dose tested; Sample Mean (% viability) ([2]; dose 100 (mM)): 93.7 % viability; Sample Mean (% viability) ([2]; dose 300 (mM)): 28.9 % viability
ClC(Cl)Cl [CHCl3, chloroform]	1.538	63.1 (34.9)	46.6 (21.5)	24.3 (5.8)					
